Where two headings read alike, the source gives them in different places.
Tests used:
[1] = tested on: human hepatocarcinoma cells (Hep G2); test: Cytotoxicity assay (resazurin) in Hep G2 cells; type: cell-based; conditions: for Cytotoxicity (% cell growth inhibition) at 1 µM ± SD: Hep G2, 1 µM
From the text: (§1) Mouse L-929 fibroblasts (NCTC clone 929, ECACC 88102702) were used for both drug toxicity and infection assays. Cell line was obtained from Dr. Concepció Soler, Dept. Pathology & Experimental therapeutics, Faculty of Medicine and Health Sciences, University of Barcelona, Spain. Human hepatocarcinoma Hep G2 cells (American Type Culture Collection (ATCC HB-8065)) were employed only in the drug toxicity assays and were obtained from Dr. Neus Agell, Cell Biology Research Group, Faculty of Medicine and Health Sciences, University of Barcelona, Spain.
Cells were seeded by trypsinization in 96-well microplates (L-929: 4 × 10^3 cells/well; Hep G2: 1.5 × 10^4 cells/well) and incubated for 24 h at 37 °C to allow cell attachment. On the following day, the medium was discarded and replaced with a fresh medium containing the different concentrations of the drugs. […] Medium, growth, and drug blanks were used in each test as controls. Plates were incubated again for another 24 h. After treatment, 20 µL of resazurin diluted in 1X phosphate-buffered saline (PBS; Sigma Aldrich) was added at a final concentration of 70 µM. The plates were incubated for another 24 h, after which fluorescence was measured in a microplate reader (FLUOstar OPTIMA, BMG LABTECH GmbH, Ortenberg, Germany) at an excitation wavelength of 530 nm and an emission wavelength of 590 nm. Each concentration was tested in triplicate and the experiments were repeated three times independently. Results indicated the percentage of toxicity (% T value). (3) % Toxicity=100−(AE−AEB)/(AC−ACB)×100 where AE is the absorbance of the experimental group, AEB the absorbance of the drug blank, AC the absorbance of the untreated cells, and ACB the absorbance of the culture medium blank. […]

[2] = tested on: epimastigotes of T. cruzi (CL strain, clone B5); test: Epimastigote susceptibility assay (monotherapy); type: cell-based, Trypanosoma cruzi
Experimental: The CL-B5 strain was stably transfected with the Escherichia coli β-galactosidase gene (lacZ) and routinely maintained in exponential growth by weekly passages. Trypomastigotes of the CL-B5 strain were obtained as previously reported.
The screening assays were performed in 96-well microplates (WWR Int LLC) containing serially diluted concentrations of each compound and seeded with 2.5 × 10^5 epimastigotes/mL harvested during the exponential growth phase. Growth, medium, and drug blanks were used in each assay as controls. An internal control of the reference drug, benznidazole, was also included. After 72 h at 28 °C, 50 µL of the substrate chlorophenol red-β-D-galactopyranoside (CPRG; Roche) diluted in 0.9% Triton X-100 solution (EMD, Darmstadt, Germany) were added at a final concentration of 200 µM. Then, after 3 h at 37 °C, measurements were performed in a scanning multiwell spectrophotometer (ELISA Multiskan Reader, BioTek Instruments, Inc., Winooski, VT, USA) at 595 nm. Each concentration was tested in triplicate and the experiments were performed three times independently. The efficacy of the compounds was calculated by determining the percentage of epimastigote growth (% EG value) as follows:(1) % Epimastigote growth=(AE−AEB)/(AC−ACB)×100 where AE is the absorbance of the experimental group, AEB the absorbance of the drug blank, AC the absorbance of the control group, and ACB the absorbance of the culture medium blank. The IC50 values (the drug concentration that eliminates 50% of the parasites) were determined for each compound using the GraphPad Prism software (Version 5.0.0 for Windows, GraphPad Software, San Diego, CA, USA).

[3] = tested on: murine L-929 fibroblasts (NCTC clone 929); test: Cytotoxicity assay (resazurin) in L-929 fibroblasts; type: cell-based, mouse
From the text: as §1
Cells were seeded by trypsinization in 96-well microplates (L-929: 4 × 10^3 cells/well; Hep G2: 1.5 × 10^4 cells/well) and incubated for 24 h at 37 °C to allow cell attachment. On the following day, the medium was discarded and replaced with a fresh medium containing the different concentrations of the drugs. Hep G2 cells were treated with concentrations of 100, 10, and 1 µM of the different drugs, while L-929 cells were treated with a wider range of concentrations in order to calculate the IC50 value (the drug concentration that inhibits 50% of cell growth). Medium, growth, and drug blanks were used in each test as controls. Plates were incubated again for another 24 h. After treatment, 20 µL of resazurin diluted in 1X phosphate-buffered saline (PBS; Sigma Aldrich) was added at a final concentration of 70 µM. The plates were incubated for another 24 h, after which fluorescence was measured in a microplate reader (FLUOstar OPTIMA, BMG LABTECH GmbH, Ortenberg, Germany) at an excitation wavelength of 530 nm and an emission wavelength of 590 nm. Each concentration was tested in triplicate and the experiments were repeated three times independently. Results indicated the percentage of toxicity (% T value). (3) % Toxicity=100−(AE−AEB)/(AC−ACB)×100 where AE is the absorbance of the experimental group, AEB the absorbance of the drug blank, AC the absorbance of the untreated cells, and ACB the absorbance of the culture medium blank. For the L-929 fibroblasts, the IC50 values (the drug concentration that inhibits 50% of cell growth) were calculated for each compound using the GraphPad Prism software.

[4] = IC50 for L-929 fibroblasts / IC50 for T. cruzi epimastigotes
[5] = Homo sapiens, HepG2, read-out: IC50 (µM) Hep G2 cell growth inhibition
[6] = Trypanosoma cruzi, CLB strain, 72 h at 28 °C, mean ± SD, read-out: IC50 (µM) in epimastigotes of T. cruzi
[7] = Mus musculus, L929, read-out: IC50 (µM) L-929 cell growth inhibition

Structure (SMILES)	Cytotoxicity (% cell growth inhibition) at 1 µM ± SD ([1]; n = 9) [%]	Selectivity index (SI), Epimastigotes [2, 4]	IC50 [1, 5] [µM]	IC50 [2, 6] [µM]	IC50 [3, 7] [µM]	also measured
CCCCCC1=C/C(=C/c2[nH]c(-c3ccc[nH]3)cc2OC)N=C1C [Synthetic prodigiosin, prodigiosin]	15 ± 6.12	6.65				IC50 ([1]; Homo sapiens, HepG2, read-out: IC50 (µM) Hep G2 cell growth inhibition, Hep G2): 5.15 ± 0.39 µM; IC50 ([2]; Trypanosoma cruzi, 72 h, read-out: IC50 (µM) in epimastigotes of T. cruzi, CLB strain, 72 h at 28 °C, mean ± SD): 0.46 ± 0.03 µM; % Cytotoxicity ± SD ([3]; L-929, 16 µM, n = 9, 16 µM): 95.75 ± 0.06%; IC50 ([3]; read-out: IC50 (µM) L-929 cell growth inhibition, L-929): 3.06 ± 0.01 µM
CCCCCC1=C/C(=C/c2[nH]c(-c3ccc[nH]3)cc2OC)N=C1C [Natural prodigiosin, prodigiosin]	2.29 ± 3.97	9.25				Cytotoxicity (% cell growth inhibition) at 10 µM ± SD ([1]; Hep G2, 10 µM, n = 9, 10 µM): 87.97 ± 5.94%; IC50 ([1]; read-out: IC50 (µM) Hep G2 cell growth inhibition, Hep G2): 6.02 ± 0.5 µM; IC50 ([2]; read-out: IC50 (µM) in epimastigotes of T. cruzi, CLB strain, 72 h at 28 °C, mean ± SD): 0.54 ± 0.25 µM; IC50 ([3]; Mus musculus, L929, read-out: IC50 (µM) L-929 cell growth inhibition, L-929): 5 ± 0.83 µM
COC1=CC(c2cc3ccccc3[nH]2)=N/C1=C\c1[nH]c(C)cc1C [Obatoclax, reference compound]			8.18 ± 1.87	3.46 ± 0.96	5.83 ± 1.07	Selectivity index (SI), Epimastigotes [2]: 1.68
CCc1c(-c2ccc[nH]2)[nH]c(/C=N/C2CCCCC2)c1C [MM3]		2.70	46 ± 8.15	4.52 ± 1.43	12.2 ± 0.28	
O=C(Cn1ccnc1[N+](=O)[O-])NCc1ccccc1 [Benznidazole, reference compound]		72.37	> 100	19 ± 7.07	1372.3 ± 0.5	
CCc1c(-c2ccc[nH]2)[nH]c(/C=N/c2ccc(C(C)(C)C)cc2)c1C [MM4]		2.76	52.5 ± 9.21	5.08 ± 0.62	14 ± 1.28	
